Data as given in US20230062537A1, “Therapy of oxygen pulses for treating neurodegenerative disorders such as Parkinson Disease (PD), Alzheimer’s Disease (AD), Amiotrophic Lateral Sclerosis (ALS) or Motor Neuron Disease (MND) and other dementias, and Lymphedema, Arthritis and Depression” (priority 2021, published 2023).
Read-outs that look alike come from different tables or passages of the source.

Assays:
[1] = for oxygen transported to the tissues: cardiac flow of 1 l/min
Description: At sea level, (non humidified) room air contains 21% O2 which translates into an oxygen partial pressure of 160 mm Hg [0.21*760 mm Hg)]. However, the body mean tissue oxygen levels are much lower than this level. Alveolar air contains 14% oxygen (106 mm Hg), arterial oxygen concentration is 12% (91 mm Hg), venous oxygen levels are 5.3% (40 mm Hg), and mean tissue intracellular oxygen concentration is only 3% (22 mm Hg (Guyton, and Hall, 1996). Furthermore, direct microelectrode measurements of tissue O2 reveal that parts of the brain normally experience O2 levels considerably lower than total body mean tissue oxygen levels, reflecting the high oxygen utilization in brain. These studies also highlight considerable regional variation in average brain oxygen levels (Table 1) that have been attributed to local differences in capillary density. Mean brain tissue oxygen concentration in adult rates is 1.5% (Silver and Erecinska, 1988), and mean fetal sheep brain oxygen tension has also been estimated at 1.6% (Koos and Power, 1987).
If we inspire air at normal pressure of 760 mm Hg (O221%) alveolar oxygen content will be 14% (106 mm Hg) and arterial oxygen content 12% (91 mm Hg). However arterial oxygen content includes oxygen content in the Hemoglobin plus oxygen absorbed in the plasma. (Mathews and Van Holde, 2002)
Oxygen content in the Hemoglobin (ml/dL)=Hb (g/dL)*% Sat.*[…]
At 100 mmHg oxygen pressure and 100% Hemoglobin saturation Oxygen content in the arterial blood is 20.7 ml/dL
If we consider a normal cardiac flow of 1 l/min, oxygen transported to the tissues would be […] or 0.924 mol-g of oxygen (5.57*10^23 molecules of oxygen/min.).
If we inspire oxygen enriched air of 31% O2, arterial pressure of oxygen would be (31/21)*100=147 mm Hg
Also oxygen content at the brain tissue will be:
Oxygen content in the arterial blood=Oxygen in Hemoglobin+Oxygen absorbed in the plasma
If we inspire oxygen of 95% O2, arterial pressure of oxygen would be (95/21)*100=452 mm Hg

Lymphedema = conditions: method No 4
Experimental: (§1) The pulse oxygen therapy as described therein for treating neurodegenerative diseases (PD, AD, ALS, MS, Arthritis, Lymphedema and Depression) to patients with mild, moderate, severe, or critical conditions may be applied as follow: • 1. […] Patients must have comfortable accommodation (temperature, illumination and sanitary conditions). • 2. As prophylactic treatment (elder patients and/or with chronic diseases) treat patients with 6 l/min oxygen flow for 60 min once a day during 5 days. • 3. As treatment for patients with mild disease (initial symptoms) treat patients with 6 l/min oxygen flow for 60 min once a day during 10 days. • 4. As treatment for patients with moderate disease treat patients with 6 l/min oxygen flow for 60 min twice a day during 10 days. • 5. As treatment for patients with severe disease treat patients with 6 l/min oxygen flow for 60 min four time a day during 10 days. • 6. As treatment for patients with critical disease treat patients with 6 l/min oxygen flow for 60 min every 3 hours during 10 days.

Depression = conditions: method No 4
Experimental: as §1

Parkinson Disease = system: Parkinson Disease
Experimental: as §1

Arthritis = conditions: method No 4
Experimental: as §1

[2] = system: PD, AD, ALS, Arthritis, Lymphedema, and Depression patients
Experimental: In our therapy the oxygen pulses are administered in consonance with the advance of the neurodegenerative diseases (PD, AD, ALS, MS, Arthritis, Lymphedema and Depression) as described as follow: • a. At the beginning of the neurodegenerative disease with the apparition of the first symptoms using procedure 1 or 2 twice a day for 5 days. • b. When the neurodegenerative disease has been detected, with a medical diagnostic, using procedure 1 or 2 four times a day for 10 days. • c. With an advanced neurodegenerative disease using procedure 1 or 2 eight times a day for 10 days

- additional flow of oxygen ([1]; 31% O2 inspired): 0.15 L/min
- increase of the oxygen transport to the tissues ([1]; 31% O2 inspired): 0.72%
- Oxygen content in the arterial blood ([1]; 31% O2 inspired, 147 mm Hg): 20.85 ml/dL
- oxygen transported to the tissues ([1]; 31% O2 inspired): 20.85 l Oxygen/min
- Oxygen at the brain level, Cortex (gray) ([1]; 31% oxygen inspired): 3.69-7.79 % O2
- Oxygen at the brain level, Cortex (white) ([1]; 31% oxygen inspired): 1.17-3.0 % O2
- Oxygen at the brain level, Hippocampus ([1]; 31% oxygen inspired): 3.8-5.7 % O2
- Oxygen at the brain level, Hypothalamus ([1]; 31% oxygen inspired): 2.0-3.0 % O2
- Oxygen at the brain level, Pons, fornix ([1]; 31% oxygen inspired): 0.14-0.58 % O2
- additional flow of oxygen ([1]; 95% O2 inspired): 1.4 L/min
- increase of oxygen flow to the tissues ([1]; 95% O2 inspired): 6.76%
- Oxygen content in the arterial blood ([1]; 95% O2 inspired, 452 mm Hg): 21.80 ml/dL
- oxygen transported to the tissues ([1]; 95% O2 inspired): 21.80 l Oxygen/min
- Oxygen at the brain level, Cortex (gray) ([1]; 95 % oxygen inspired): 11.3-23.8 % O2
- Oxygen at the brain level, Cortex (white) ([1]; 95 % oxygen inspired): 3.58-9.18 % O2
- Oxygen at the brain level, Hippocampus ([1]; 95 % oxygen inspired): 11.6-17.4 % O2
- Oxygen at the brain level, Hypothalamus ([1]; 95 % oxygen inspired): 6.12-9.18 % O2
- Oxygen at the brain level, Pons, fornix ([1]; 95 % oxygen inspired): 0.42-1.77 % O2
- arterial pressure of oxygen ([1]; oxygen enriched air of 31% O2 inspired): 147 mm Hg
- arterial pressure of oxygen ([1]; oxygen of 95% O2 inspired): 452 mm Hg
SMILES: O=O [oxygen]
- limbs inflammation at follow-up (Lymphedema; after 11 months): no limbs inflammation has developed
- outcome after 10 days (Lymphedema; after 10 days): a notable recuperation takes place
- time to begin of recovery (Lymphedema; person, severe limbs inflammation after cancer radiotherapy): 5 days
- Depression at follow-up (Depression; after 11 months): no more Depression has been detected
- outcome after 10 days (Depression; after 10 days): a notable recuperation takes place
- time to begin of recovery (Depression; person, severe Depression): 5 days
- symptoms at follow-up (Parkinson Disease; after 12 months, method No 4): no AD symptoms has developed
- time to recovery (Parkinson Disease; patient, moderate conditions, method No 4: 6 l/min oxygen flow 60 min twice a day during 10 days): 5 days
- deformation at follow-up (Arthritis; after 12 months): no more deformation has been observed
- outcome after 10 days (Arthritis; after 10 days): a notable recuperation takes place
- time to begin of recovery (Arthritis; person, severe deformation in hands): 5 days
- use of the therapy in patients [2]: satisfactory used
